Source: the supplement of paper PMC10331698
± gives the standard deviation of the averaged measurements.

Assays:
Experiment in all cases: level (log10 ratio to DMSO vehicle control); higher = higher biomarker level / cell amount than vehicle control
[1] = compound: C=C(C)C(=O)OCCC(F)(F)C(F)(F)C(F)(F)C(F)(F)C(F)(F)C(F)(F)C(F)(F)C(F)(F)F [8:2 Fluorotelomer methacrylate] (in DMSO)
Method: (§1)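 BioMAP Diversity Plus panel of 12 human primary cell co-culture systems (3C, 4H, LPS, SAg, BT, BF4T, BE3C, CASM3C, HDF3CGF, KF3CT, MyoF, Mphg). Compounds were added 1 h before stimulation and left for 24 h (MyoF 48 h; BT 72 h for soluble read-outs or 6 d for IgG). Biomarkers were read by ELISA, cytotoxicity by SRB, PBMC viability and proliferation by Alamar Blue. Each well value was divided by the mean of 8 DMSO control wells on the same plate and log10 transformed; duplicate blinded samples were tested at 4 concentrations.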

[2] = compound: O=C(O)C(F)(F)OC(F)(F)C(F)(F)OC(F)(F)C(F)(F)OC(F)(F)C(F)(F)C(F)(F)C(F)(F)F [Perfluoro-3,6,9-trioxatridecanoic acid] (in DMSO); details: 6700 nM
Method: as §1

[3] = compound: C[C@@H]1C[C@H]2[C@@H]3CCC4=CC(=O)C=C[C@]4(C)[C@@]3(F)[C@@H](O)C[C@]2(C)[C@@]1(O)C(=O)COP(=O)(O)O [Dexamethasone sodium phosphate] (in DMSO)
Method: as §1

[4] = compound: NS(=O)(=O)C(F)(F)C(F)(F)C(F)(F)C(F)(F)C(F)(F)C(F)(F)C(F)(F)C(F)(F)F [Perfluorooctanesulfonamide] (in DMSO)
Method: as §1

[5] = compound: CN(C(=O)C(F)(F)C(F)(F)C(F)(F)F)[Si](C)(C)C [N-Methyl-N-trimethylsilylheptafluorobutyramide] (in DMSO)
Method: as §1

Perfluoroundecanoic acid = compound: O=C(O)C(F)(F)C(F)(F)C(F)(F)C(F)(F)C(F)(F)C(F)(F)C(F)(F)C(F)(F)C(F)(F)C(F)(F)F [Perfluoroundecanoic acid] (in DMSO); details: 6700 nM
Method: as §1

[6] = compound: O=S(=O)(O)C(F)(F)C(F)(F)C(F)(F)C(F)(F)C(F)(F)C(F)(F)C(F)(F)F [Perfluoroheptanesulfonic acid] (in DMSO)
Method: as §1

[7] = compound: CO[Si](C)(CCC(F)(F)C(F)(F)C(F)(F)C(F)(F)C(F)(F)C(F)(F)F)OC [Dimethoxymethyl((perfluorohexyl)ethyl)silane] (in DMSO)
Method: as §1

| Test System | level (log10) ([1]; 6700 nM) | level (log10) ([1]; 20000 nM) | level (log10) [2] | level (log10) ([3]; 1500 nM) | level (log10) ([3]; 4400 nM) | level (log10) ([3]; 13000 nM) | level (log10) ([3]; 40000 nM) | level (log10) ([4]; 6700 nM) | level (log10) ([4]; 20000 nM) | level (log10) ([5]; 6700 nM) | level (log10) ([5]; 20000 nM) | level (log10) ([5]; 60000 nM) | level (log10) (Perfluoroundecanoic acid) | level (log10) ([6]; 1500 nM) | level (log10) ([6]; 4400 nM) | level (log10) ([6]; 13000 nM) | level (log10) ([6]; 40000 nM) | level (log10) ([7]; 6700 nM) | level (log10) ([7]; 20000 nM) |
| --- | --- | --- | --- | --- | --- | --- | --- | --- | --- | --- | --- | --- | --- | --- | --- | --- | --- | --- | --- |
| BE3C:uPA | -0.0145 ± 0.012 | -0.0145 ± 0.059 | -0.349 ± 0.005 | -0.0165 ± 0.005 | -0.0125 ± 0.021 | -0.036 ± 0.027 | -0.051 ± 0.038 | -0.0065 ± 0.013 | 0.0145 ± 0.0064 | 0.0045 ± 0.032 | -0.0105 ± 0.026 | 0.015 ± 0.0071 | 0.0255 ± 0.00071 | -0.0055 ± 0.023 | -0.004 ± 0.034 | -0.0235 ± 0.032 | -0.018 ± 0.038 | 0.0115 ± 0.011 | -0.0055 ± 0.013 |
| KF3CT:IL-1alpha | -0.0145 ± 0.036 | -0.028 ± 0.031 | -0.041 ± 0.03 | -0.036 ± 0.018 | -0.035 ± 0.0057 | -0.0305 ± 0.00071 | -0.051 ± 0.044 | 0.074 ± 0.0042 | -0.056 ± 0.02 | -0.0155 ± 0.0021 | -0.017 ± 0.0099 | 0.008 ± 0.034 | -0.026 ± 0.011 | -0.0015 ± 0.0035 | 0.013 ± 0.0071 | 0 ± 0.0028 | 0.0095 ± 0.013 | -0.032 ± 0.024 | -0.0065 ± 0.032 |
| lMphg:CXCL8/IL-8 | 0.0355 ± 0.023 | 0.085 ± 0.016 | 0.126 ± 0.016 | -0.108 ± 0.0064 | -0.138 ± 0.015 | -0.136 ± 0.011 | -0.129 ± 0.034 | 0.004 ± 0.0042 | 0.124 ± 0.019 | -0.0215 ± 0.0078 | 0.009 ± 0.027 | 0.0155 ± 0.025 | 0.01 ± 0.013 | -0.001 ± 0.038 | -0.0165 ± 0.0078 | -0.018 ± 0.023 | 0.074 ± 0.069 | -0.0095 ± 0.029 | 0.0025 ± 0.015 |
| HDF3CGF:CXCL8/IL-8 | -0.0045 ± 0.0035 | -0.0025 ± 0.023 | 0.003 ± 0.0042 | -0.039 ± 0.014 | -0.0725 ± 0.005 | -0.0645 ± 0.018 | -0.0515 ± 0.039 | 0.004 ± 0.0085 | -0.204 ± 0.11 | -0.0015 ± 0.0092 | -0.003 ± 0.0057 | 0.0075 ± 0.0078 | 0.013 ± 0.0028 | 0.0125 ± 0.005 | -0.0115 ± 0.005 | 0.008 ± 0.0042 | 0.0065 ± 0.026 | -0.0055 ± 0.0035 | 0.01 ± 0.0028 |
| MyoF:alpha-SM Actin | -0.009 ± 0.081 | 0.0025 ± 0.079 | -0.24 ± 0.025 | 0.073 ± 0.051 | 0.084 ± 0.055 | 0.0695 ± 0.057 | 0.0745 ± 0.063 | -0.0355 ± 0.037 | -0.63 ± 0.1 | 0.0035 ± 0.0021 | -0.01 ± 0.0014 | 0.0005 ± 0.021 | -0.061 ± 0.0085 | 0.0025 ± 0.1 | 0.0035 ± 0.077 | -0.021 ± 0.064 | 0.0025 ± 0.069 | -0.0045 ± 0.0064 | -0.018 ± 0.018 |
| 3C:CD142/Tissue Factor | 0.0445 ± 0.047 | 0.0595 ± 0.022 | -0.0085 ± 0.03 | 0.034 ± 0.038 | 0.0265 ± 0.015 | 0.0335 ± 0.0078 | 0.0775 ± 0.028 | -0.05 ± 0.017 | -0.033 ± 0.031 | 0.0195 ± 0.044 | 0.02 ± 0.013 | 0.026 ± 0.033 | -0.008 ± 0.016 | 0.0375 ± 0.011 | 0.021 ± 0.031 | 0.048 ± 0.048 | 0.0665 ± 0.1 | 0.015 ± 0.02 | 0.021 ± 0.033 |
| HDF3CGF:Collagen I | -0.0255 ± 0.029 | -0.001 ± 0.083 | -0.0565 ± 0.061 | -0.0005 ± 0.1 | -0.016 ± 0.047 | -0.0155 ± 0.023 | 0.0075 ± 0.005 | 0.08 ± 0.037 | -0.0535 ± 0.046 | -0.058 ± 0.021 | -0.0195 ± 0.053 | -0.0335 ± 0.039 | -0.0645 ± 0.03 | -0.0005 ± 0.011 | -0.0075 ± 0.021 | -0.0105 ± 0.025 | 0.021 ± 0.075 | 0.0095 ± 0.077 | 0.052 ± 0.038 |
| CASM3C:CXCL8/IL-8 | -0.011 ± 0.0057 | -0.0055 ± 0.028 | 0.002 ± 0.0085 | -0.075 ± 0.044 | -0.0815 ± 0.023 | -0.092 ± 0.0057 | -0.084 ± 0.0042 | -0.0055 ± 0.0035 | -0.0125 ± 0.0035 | -0.006 | -0.006 ± 0.0028 | 0.008 ± 0.0042 | 0.0005 ± 0.0021 | 0.0015 ± 0.013 | -0.005 ± 0.0099 | -0.0105 ± 0.005 | -0.0005 ± 0.019 | -0.004 | 0.004 ± 0.0085 |
| KF3CT:CXCL8/IL-8 | -0.013 ± 0.0071 | -0.0275 ± 0.015 | -0.047 ± 0.0042 | -0.044 ± 0.05 | -0.05 ± 0.02 | -0.045 ± 0.021 | -0.045 ± 0.0028 | -0.0135 ± 0.021 | -0.0525 ± 0.018 | 0.001 ± 0.013 | -0.0105 ± 0.00071 | 0.0115 ± 0.022 | -0.0315 ± 0.037 | 0.001 ± 0.014 | -0.0095 ± 0.03 | 0 ± 0.03 | 0.0065 ± 0.022 | -0.016 ± 0.0014 | 0.0035 ± 0.019 |
| HDF3CGF:PAI-I | -0.0305 ± 0.052 | -0.0635 ± 0.022 | -0.212 ± 0.0099 | 0.091 ± 0.011 | 0.0875 ± 0.0035 | 0.072 ± 0.0042 | 0.039 ± 0.0099 | 0.005 ± 0.033 | -0.45 ± 0.26 | -0.013 ± 0.0042 | 0.0015 ± 0.023 | 0.0385 ± 0.04 | -0.011 ± 0.0057 | 0.02 ± 0.073 | 0.0135 ± 0.049 | -0.0315 ± 0.046 | -0.0325 ± 0.011 | -0.0035 ± 0.0092 | 0.0105 ± 0.015 |
| HDF3CGF:TIMP-1 | -0.0115 ± 0.036 | -0.0375 ± 0.074 | -0.109 ± 0.088 | -0.0755 ± 0.04 | -0.0735 ± 0.053 | -0.112 ± 0.07 | -0.175 ± 0.081 | 0.065 ± 0.068 | -0.138 ± 0.15 | -0.036 ± 0.017 | -0.038 ± 0.018 | -0.031 ± 0.0071 | 0.0385 ± 0.043 | -0.004 ± 0.013 | -0.001 ± 0.071 | -0.002 ± 0.045 | 0.012 ± 0.1 | -0.023 ± 0.027 | -0.0285 ± 0.022 |
| BE3C:Keratin 8/18 | -0.0195 ± 0.037 | -0.008 ± 0.071 | -0.293 ± 0.032 | 0.0045 ± 0.012 | 0.0035 ± 0.00071 | -0.025 ± 0.0042 | -0.0165 ± 0.0064 | -0.0475 ± 0.013 | -0.0185 ± 0.0021 | -0.013 ± 0.023 | 0.001 ± 0.013 | 0.019 ± 0.0085 | -0.045 ± 0.023 | -0.013 ± 0.035 | -0.0065 ± 0.037 | -0.015 ± 0.033 | -0.0185 ± 0.033 | 0.0155 ± 0.011 | 0.0075 ± 0.005 |
| MyoF:Collagen IV | -0.0265 ± 0.015 | -0.027 ± 0.025 | 0.412 ± 0.089 | -0.007 ± 0.021 | 0.011 ± 0.041 | 0.0005 ± 0.037 | 0.0195 ± 0.011 | 0.118 ± 0.015 | 0.28 ± 0.028 | 0.0175 ± 0.0021 | 0.0075 ± 0.0078 | 0.0325 ± 0.04 | 0.57 ± 0.013 | 0.013 ± 0.018 | -0.017 ± 0.0057 | -0.012 ± 0.013 | 0.0025 ± 0.023 | 0.0085 ± 0.018 | 0.038 ± 0.0028 |
| 3C:CD54/ICAM-1 | -0.0125 ± 0.016 | -0.0095 ± 0.025 | 0.0005 ± 0.021 | -0.006 ± 0.04 | -0.019 ± 0.013 | -0.0145 ± 0.022 | -0.0125 ± 0.00071 | -0.0005 ± 0.005 | 0.002 ± 0.011 | -0.0045 ± 0.022 | -0.014 ± 0.0042 | 0.015 ± 0.011 | -0.009 ± 0.0042 | 0.0085 ± 0.005 | -0.003 ± 0.0042 | -0.001 ± 0.013 | -0.0015 ± 0.0021 | -0.008 ± 0.0085 | 0.0265 ± 0.016 |
